# Data as given in PMC9281440, “In Vivo Distribution and Therapeutic Efficacy of Radioiodine-Labeled pH-Low Insertion Peptide Variant 3 in a Mouse Model of Breast Cancer” (Molecular Imaging, 2022).
# Tested on: MDA-MB-231 xenografts
# Experiment: Therapeutic efficacy in MDA-MB-231 xenografts
# Type: in vivo, mouse
# Settings: tail vein injection on days 0 and 3 (29.6 MBq each for radioactive groups), end of treatment (26 days), mean ± SD, n = 5
# Experimental: Five-week-old female athymic BALB/c nude mice (Shanghai Slaccas Experiment Animal Corp., Shanghai, China) were used in our study. Mouse xenograft models of MDA-MB-231, 4T1, and SK-BR-3 cells were produced by the subcutaneous injection of 5 × 10^6 cells (suspended in 150 μL PBS) into the right axilla of each mouse. The mice were used in subsequent experiments when tumor diameter reached 0.5-0.9 cm. The study protocol was approved by the institutional review board and by the Experimental Animal Center of Ruijin Hospital affiliated to the School of Medicine of Shanghai Jiao Tong University.
# Twenty mice-bearing MDA-MB-231 human BC xenografts were divided into four groups of five animals. Group 1 was injected with ^131I-Var3-pHLIP in the tail vein on days 0 and 3 (29.6 MBq each day). Groups 2, 3, and 4 were injected with the same volume of Var3-pHLIP, ^131I (29.6 MBq), and saline solution, respectively. Tumor size was measured every 2 to 4 days postinjection (pi) for 26 days using a caliper. Tumor volumes (V, […]) were calculated using the formula: V = (a × b^2)/2, where a and b are tumor length and width, respectively. Relative tumor volumes were calculated as V/V0 (V0, tumor volume before treatment). The body weight of mice was also determined.
sequence,measurement,value
ACDDQNPWRAYLDLLFPTDTLLLDLLWK [Var3-pHLIP],relative tumor volume (V/V0),4.17 ± 0.51
